Measured values: patent publication US9102648B1, “Bioavailable diacylhydrazine ligands for modulating the expression of exogenous genes via an ecdysone receptor complex” (Intrexon Corporation, priority 2003, dated 2015)
Where two headings read alike, the source gives them in different places.

Key:
[1] = target: T1, Bombyx mori EcR (VP16 fusion, CVBE switch construct) (Bombyx mori, UniProt P49881); test: Z3 Assay (HEK-293 cells with CVBE and 6XEcRE LacZ, β-galactosidase reporter); settings: for Fold Induction, Z3 Assay, 3.3 uM: 3.3 uM ligand; for Fold Induction, Z3 Assay, 3.3 uM / Fold Induction, Z3 Assay, 33 uM: ligand treated / DMSO treated cells; for Fold Induction, Z3 Assay, 33 uM: 33 uM ligand; for Z3 assay Rel Max FI: maximum fold induction at any concentration relative to that of GS-E ligand; for fold induction at 3.3 µM: HEK293, read-out: Fold Induction, Z3 Assay, 3.3 uM
T1 sequence (P49881 86-606): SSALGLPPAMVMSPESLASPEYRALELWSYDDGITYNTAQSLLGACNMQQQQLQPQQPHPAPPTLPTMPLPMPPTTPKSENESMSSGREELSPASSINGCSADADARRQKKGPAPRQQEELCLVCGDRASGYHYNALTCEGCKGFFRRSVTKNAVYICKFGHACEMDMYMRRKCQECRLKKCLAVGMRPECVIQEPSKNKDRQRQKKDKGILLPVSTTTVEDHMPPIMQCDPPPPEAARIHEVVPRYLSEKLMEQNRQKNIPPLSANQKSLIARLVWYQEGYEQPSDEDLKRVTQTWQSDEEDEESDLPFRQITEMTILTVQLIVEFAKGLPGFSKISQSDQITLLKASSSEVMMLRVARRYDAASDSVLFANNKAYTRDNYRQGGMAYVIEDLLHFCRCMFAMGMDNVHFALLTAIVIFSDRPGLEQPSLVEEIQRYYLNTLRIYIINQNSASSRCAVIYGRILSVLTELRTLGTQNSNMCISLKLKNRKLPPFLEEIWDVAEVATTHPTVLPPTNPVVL
T1 sequence (P19793 1-462 partner): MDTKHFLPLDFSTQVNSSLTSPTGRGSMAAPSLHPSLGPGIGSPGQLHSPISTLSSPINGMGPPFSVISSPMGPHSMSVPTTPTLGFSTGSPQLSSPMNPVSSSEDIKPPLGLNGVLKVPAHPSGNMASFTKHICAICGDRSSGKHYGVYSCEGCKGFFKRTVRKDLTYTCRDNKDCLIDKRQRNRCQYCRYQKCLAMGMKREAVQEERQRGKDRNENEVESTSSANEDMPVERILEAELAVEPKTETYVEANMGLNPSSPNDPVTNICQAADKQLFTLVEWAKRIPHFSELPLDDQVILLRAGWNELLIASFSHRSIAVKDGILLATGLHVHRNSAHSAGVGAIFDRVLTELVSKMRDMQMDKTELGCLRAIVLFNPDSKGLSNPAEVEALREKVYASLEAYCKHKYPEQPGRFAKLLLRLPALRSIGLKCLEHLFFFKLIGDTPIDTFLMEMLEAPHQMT

[2] = target: GAL4 DBD-CfEcR(DEF)/VP16AD-MmRXRE (Choristoneura fumiferana, UniProt O77240); test: 13B3 Assay (CHO stable cell line, luciferase reporter); settings: for Fold Induction, 13B3 Assay, 3.3 uM: 3.3 uM ligand; for Fold Induction, 13B3 Assay, 3.3 uM / Fold Induction, 13B3 Assay, 33 uM: RLU ligand treated / RLU DMSO treated cells; for Fold Induction, 13B3 Assay, 33 uM: 33 uM ligand; for 13B3 assay Rel Max FI: maximum fold induction at any concentration relative to that of GS-E ligand, CHO 13B3 cells; for fold induction at 3.3 µM: read-out: Fold Induction, 13B3 Assay, 3.3 uM; for fold induction at 33 µM: read-out: Fold Induction, 13B3 Assay, 33 uM
Summary of the method: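 Ligands dosed at 8 levels from 33 to 0.01 μM (DMSO stocks diluted 300-fold) onto the 13B3 CHO line carrying GAL4-DBD/CfEcR-DEF, VP16/MmRXR-DE and a GAL4-responsive luciferase gene.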

[3] = read-out: Z3 assay EC50, HEK-293 Z3 cells, β-galactosidase reporter, average of two wells
[4] = read-out: 13B3 EC50, CHO 13B3 stable cell line, luciferase reporter, 48 h, average of two wells

Row | Structure (SMILES) | Fold Induction, Z3 Assay, 3.3 uM ([1]; average of two wells) | Fold Induction, Z3 Assay, 33 uM ([1]; average of two wells) | Z3 assay Rel Max FI ([1]; HEK-293 Z3 cells) | EC50 [1, 3] [µM] | Fold Induction, 13B3 Assay, 3.3 uM ([2]; average of two wells) | Fold Induction, 13B3 Assay, 33 uM ([2]; average of two wells) | 13B3 assay Rel Max FI [2] | EC50 [2, 4] [µM] | EC50 [1] [µM] | fold induction at 3.3 µM [1] | fold induction at 33 µM ([1]; HEK293, read-out: Fold Induction, Z3 Assay, 33 uM) | EC50 [2] [µM] | fold induction at 3.3 µM [2] | fold induction at 33 µM [2]
1 | Cc1c(C(=O)NN(C(=O)c2cc(F)c(F)c(F)c2F)C(C)(C)C)ccc2c1CCCO2 [RG-115518] | 232 | 803 | 0.834 | 0.257 | 1644 | 926 | 0.648 | 1.25 | – | – | – | – | – | –
2 | Cc1c(C(=O)NN(C(=O)c2cc(F)c(Cl)cc2Cl)C(C)(C)C)ccc2c1CCCO2 [RG-115539] | – | 339 | – | 0.151 | 20 | 592 | 0.955 | 5 | – | – | – | – | – | –
3 | COc1ccc(Cl)cc1C(=O)N(NC(=O)c1ccc2c(c1C)CCCO2)C(C)(C)C [RG-115551] | – | 470 | – | 0.398 | – | 290 | – | – | – | – | – | – | – | –
4 | Cc1c(C(=O)NN(C(=O)c2cc(F)c(F)c(F)c2)C(C)(C)C)ccc2c1CCCO2 [RG-115575, 3,4,5-Trifluoro-benzoic acid N-tert-butyl-N′-(5-methyl-chroman-6-carbonyl)-hydrazide] | – | – | 0.886 | – | – | – | 0.641 | – | 0.102 | 282 | 785 | 0.271 | 3080 | 865
5 | CCc1c(C(=O)NN(C(=O)c2ccc(F)c(F)c2F)C(C)(C)C)ccc2c1OCCO2 [RG-115580] | – | 615 | – | 0.182 | – | 298 | – | – | – | – | – | – | – | –
6 | COc1cnccc1C(=O)N(NC(=O)c1cccc(O)c1C)C(C)(C)C [RG-115595] | 44 | 1067 | 0.686 | 5.62 | 6 | 1381 | – | – | – | – | – | – | – | –
7 | CCc1c(OC)cccc1C(=O)NN(C(=O)c1cc(C)cc(C)c1)C(C)(C)C=NNC(=O)C(N)=O [RG-115597, oxamic carbazide of 2-ethyl-3-methoxy-benzoic acid N′-(3,5-dimethyl-benzoyl)-N′-(1,1-dimethyl-2-oxo-ethyl)-hydrazide] | – | 942 | – | – | – | 4667 | – | – | – | – | – | – | – | –
8 | CCc1c(OC)cccc1C(=O)NN(C(=O)c1cc(C)cc(C=NNC(=O)C(N)=O)c1)C(C)(C)C [RG-115613, oxamic hydrazone of N-(3-formyl-5-methyl-benzoyl)-N-tert-butyl-N′-(2-ethyl-3-methoxy-benzoyl) hydrazide] | 991 | 1469 | 0.964 | 0.589 | 180 | 1726 | 0.734 | 5.94 | – | – | – | – | – | –
9 | COc1cc(C(=O)N(NC(=O)c2ccc3c(c2C)OCCO3)C(C)(C)C)cc(OC)c1C [RG-115637, 5-Methyl-2,3-dihydro-benzo[1,4]dioxine-6-carboxylic acid N′-tert-butyl-N′-(3,5-dimethoxy-4-methyl-benzoyl)-hydrazide] | – | – | 0.947 | – | – | – | 1.002 | – | 0.018 | 211 | – | 0.088 | 1110 | 636
10 | CCc1c(OC)cccc1C(=O)NN(C(=O)c1ccc(Cl)cc1[N+](=O)[O-])C(C)(C)C [RG-115647] | 96 | 510 | 0.923 | 0.145 | 2169 | 98 | 0.662 | 0.832 | – | – | – | – | – | –
11 | CCc1c(OC)cccc1C(=O)NN(C(=O)c1cc(C)cc(C)c1)C(C)(C)C=NNC(N)=O [RG-115653, semicarbazide of 2-ethyl-3-methoxy-benzoic acid N′-(3,5-dimethyl-benzoyl)-N′-(1,1-dimethyl-2-oxo-ethyl)-hydrazide] | – | 666 | – | – | 6 | – | – | – | – | – | – | – | – | –
